In ChEMBL document CHEMBL5505996, “Discovery of novel osthole derivatives exerting anti-inflammatory effect on DSS-induced ulcerative colitis and LPS-induced acute lung injury in mice” (Eur J Med Chem, 2024):
Values after ≈ are worked out from the molar mass of the structure shown. Active and inactive are the calls of the source. The calls are words filed in the database; no cut-off is given here.

What was measured:
J774.A1 [1] = assay: Antiinflammatory activity against LPS-induced mouse J774.A1 cells assessed as inhibition of IL-6 release at 10 uM pretreated for 30 mins followed by LPS stimulation and measured after 24 hrs by ELISA relative to control; format: functional; conditions: time 24.5 hrs
[2] = Aqueous solubility of compound in phosphate buffer at pH 7.4 measured after 24 hrs by HPLC analysis; format: physicochemical
RAW264.7 [3] = assay: Antiinflammatory activity against LPS-induced mouse RAW264.7 cells assessed as inhibition of IL-6 release pretreated for 30 mins followed by LPS stimulation and measured after 24 hrs by ELISA; format: functional, cell-based
RAW264.7 [4] = assay: Antiinflammatory activity against LPS-induced mouse RAW264.7 cells assessed as inhibition of TNF-alpha release pretreated for 30 mins followed by LPS stimulation and measured after 24 hrs by ELISA; format: functional, cell-based
J774.A1 [5] = assay: Antiinflammatory activity against LPS-induced mouse J774.A1 cells assessed as inhibition of IL-6 release at 1.25 to 10 uM pretreated for 30 mins followed by LPS stimulation and measured after 24 hrs by ELISA; format: functional, cell-based; conditions: dose 1.25-10 µM, time 24.5 hrs
J774.A1 [6] = assay: Antiinflammatory activity against LPS-induced mouse J774.A1 cells assessed as inhibition of TNF-alpha release at 1.25 to 10 uM pretreated for 30 mins followed by LPS stimulation and measured after 24 hrs by ELISA; format: functional, cell-based; conditions: dose 1.25-10 µM, time 24.5 hrs
THP-1 [7] = assay: Antiinflammatory activity against LPS-induced PMA-differentiated human THP-1 cells assessed as inhibition of IL-6 release at 5 to 40 uM pretreated for 30 mins followed by LPS stimulation and measured after 24 hrs by ELISA; format: functional, cell-based; conditions: dose 5-40 µM, time 24.5 hrs
THP-1 [8] = assay: Antiinflammatory activity against LPS-induced PMA-differentiated human THP-1 cells assessed as inhibition of TNF-alpha release at 5 to 40 uM pretreated for 30 mins followed by LPS stimulation and measured after 24 hrs by ELISA; format: functional, cell-based; conditions: dose 5-40 µM, time 24.5 hrs
J774.A1 [9] = assay: Antiinflammatory activity against LPS-induced mouse J774.A1 cells assessed as inhibition of IL-6 release at 10 uM pretreated for 30 mins followed by LPS stimulation and measured after 24 hrs by ELISA; format: functional, cell-based; conditions: time 24.5 hrs
Mus musculus [10] = assay: Antiinflammatory activity against C57BL/6 mouse model of DSS induced ulcerative colitis assessed as reduction in IL-6 level in serum at 100 mg/kg, po administered daily for 10 days; format: functional, organism-based; conditions: time 10.0 day
Mus musculus [11] = assay: Antiinflammatory activity against C57BL/6 mouse model of DSS induced ulcerative colitis assessed as reversal of weight loss at 100 mg/kg, po administered daily for 10 days; format: functional, organism-based; conditions: time 10.0 day
Mus musculus [12] = assay: Antiinflammatory activity against C57BL/6 mouse model of DSS induced ulcerative colitis assessed as reversal of shortened intestinal length due to fecal obstruction at 100 mg/kg, po administered daily for 10 days; format: functional, organism-based; conditions: time 10.0 day
Mus musculus [13] = assay: Antiinflammatory activity against C57BL/6 mouse model of DSS induced ulcerative colitis assessed as reduction in inflammatory cytokines infiltration in intestine at 100 mg/kg, po administered daily for 10 days by immunohistochemical staining based analysis; format: functional, organism-based; conditions: time 10.0 day
J774.A1 [14] = assay: Cytotoxicity against mouse J774.A1 cells assessed as reduction in cell proliferation at 10 uM measured after 24 hrs by CCK-8 assay; format: toxicity, cell-based; conditions: j774.a1, 24 h
Mus musculus [15] = assay: Antiinflammatory activity against C57BL/6 mouse model of LPS induced acute lung injury assessed as reduction in pulmonary edema by measuring reduction in lung wet/dry ratio at 20 mg/kg, po administered every 12 hrs for 3 times followed by LPS stimulation for 6 hrs starting from 30 mins post last dose; format: functional, organism-based; conditions: time 42.5 hrs
Mus musculus [16] = assay: Antiinflammatory activity against C57BL/6 mouse model of LPS induced acute lung injury assessed as reduction in total number of cells in BALF at 20 mg/kg, po administered every 12 hrs for 3 times followed by LPS stimulation for 6 hrs starting from 30 mins post last dose; format: functional, organism-based; conditions: time 42.5 hrs
Mus musculus [17] = assay: Antiinflammatory activity against C57BL/6 mouse model of LPS induced acute lung injury assessed as reduction in IL-6 level in BALF at 20 mg/kg, po administered every 12 hrs for 3 times followed by LPS stimulation for 6 hrs starting from 30 mins post last dose by ELISA; format: functional, organism-based; conditions: time 42.5 hrs
Mus musculus [18] = assay: Antiinflammatory activity against C57BL/6 mouse model of LPS induced acute lung injury assessed as reduction in IL-6 level in serum at 20 mg/kg, po administered every 12 hrs for 3 times followed by LPS stimulation for 6 hrs starting from 30 mins post last dose by ELISA; format: functional, organism-based; conditions: time 42.5 hrs
Mus musculus [19] = assay: Antiinflammatory activity against C57BL/6 mouse model of LPS induced acute lung injury assessed as reduction in IL-6 mRNA expression in lung at 20 mg/kg, po administered every 12 hrs for 3 times followed by LPS stimulation for 6 hrs starting from 30 mins post last dose by RT-qPCR analysis; format: functional, organism-based; conditions: time 42.5 hrs
Mus musculus [20] = assay: Antiinflammatory activity against C57BL/6 mouse model of LPS induced acute lung injury assessed as reduction in TNF-alpha mRNA expression in lung at 20 mg/kg, po administered every 12 hrs for 3 times followed by LPS stimulation for 6 hrs starting from 30 mins post last dose by RT-qPCR analysis; format: functional, organism-based; conditions: time 42.5 hrs

| Structure (SMILES) | inhibition at 10 µM (J774.A1 [1]) [%] | also measured |
| --- | --- | --- |
| CC(C)=CCc1c(OCC(=O)Nc2ccccc2)ccc2ccc(=O)oc12 | 48.5 |  |
| CC(C)=CCc1c(OCc2ccc(C)cc2)ccc2ccc(=O)oc12 | 88.7 |  |
| CC(C)=CCc1c(OCCCCN2CCN(C)CC2)ccc2ccc(=O)oc12 | 82.3 |  |
| CC(C)=CCc1c(OCCN2CCCC(C)C2)ccc2ccc(=O)oc12 (centres undefined) | 31.4 |  |
| CC(C)=CCc1c(OCCN2CCCCC2)ccc2ccc(=O)oc12 | 10.6 |  |
| CC(C)=CCc1c(OCCCN2CCN(C)CC2)ccc2ccc(=O)oc12 | 81.9 |  |
| CC(C)=CCc1c(OCC2CCCCC2)ccc2ccc(=O)oc12 | 88 |  |
| CC(C)=CCc1c(OCCN2CCOCC2)ccc2ccc(=O)oc12 | 71.7 |  |
| COc1ccc2ccc(=O)oc2c1CC=C(C)C [OSTHOLE] |  | solubility at 24 h [2]: 10 µg/mL (≈ 40.9 µM); IC50 (RAW264.7 [3]): 146 µM; IC50 (RAW264.7 [4]): 113 µM; Activity (J774.A1 [5]): inactive; Activity (J774.A1 [6]): inactive; Activity (THP-1 [7]): inactive; Activity (THP-1 [8]): inactive |
| CC(C)=CCc1c(OCCN2CCCC2)ccc2ccc(=O)oc12 |  | Activity (J774.A1 [9]): inactive |
| Nc1ccc(O)c(C(=O)O)c1 |  | Activity (Mus musculus [10]): Active; Activity (Mus musculus [11]): Active; Activity (Mus musculus [12]): Active; Activity (Mus musculus [13]): Active |
| CCN1CCN(C(=O)COc2ccc3ccc(=O)oc3c2CC=C(C)C)CC1 | 46 |  |
| CCN1CCN(CCCOc2ccc3ccc(=O)oc3c2CC=C(C)C)CC1 | 92.2 | Activity (J774.A1 [14]): Toxic |
| COc1cccc(COc2ccc3ccc(=O)oc3c2CC=C(C)C)c1 | 80.2 |  |
| CC(C)=CCc1c(OCc2cccc(C)c2)ccc2ccc(=O)oc12 | 77.9 |  |
| CC(C)=CCc1c(OCCNCCN2CCOCC2)ccc2ccc(=O)oc12 | 46.8 |  |
| CCN1CCN(CCOc2ccc3ccc(=O)oc3c2CC=C(C)C)CC1 | 88.6 |  |
| CC(C)=CCc1c(OCC2CCCO2)ccc2ccc(=O)oc12 (centres undefined) | 82.5 |  |
| CC(C)=CCc1c(OCCCN2CCCC2)ccc2ccc(=O)oc12 | 63.3 |  |
| CC(C)=CCc1c(OCCN(C)C)ccc2ccc(=O)oc12 |  | Activity (J774.A1 [9]): inactive |
| CC(C)=CCc1c(OCC(=O)Nc2ccccc2Br)ccc2ccc(=O)oc12 | 88.3 | Activity (J774.A1 [14]): Toxic |
| CC(C)=CCc1c(OCc2cccc(F)c2)ccc2ccc(=O)oc12 | 68.8 |  |
| CC(C)=CCc1c(OCCN2CCN(C)CC2)ccc2ccc(=O)oc12 | 69 |  |
| CC(C)=CCc1c(OCC2CC2)ccc2ccc(=O)oc12 | 64.2 |  |
| CC(C)=CCc1c(OCC2CO2)ccc2ccc(=O)oc12 (centres undefined) | 82.3 |  |
| CC(C)=CCc1c(OCC(=O)NCCCN2CCOCC2)ccc2ccc(=O)oc12 | 21.5 |  |
| C[C@@H]1C[C@H]2[C@@H]3CCC4=CC(=O)C=C[C@]4(C)[C@@]3(F)[C@@H](O)C[C@]2(C)[C@@]1(O)C(=O)CO |  | Activity (Mus musculus [15]): Active; Activity (Mus musculus [16]): Active; Activity (Mus musculus [17]): Active; Activity (Mus musculus [18]): Active; Activity (Mus musculus [19]): Active; Activity (Mus musculus [20]): Active |
| CC(C)=CCc1c(OCCCN2CCOCC2)ccc2ccc(=O)oc12 | 69 |  |
